Assay results reported in patent US20140186268A1, “Oxide Ferrimagnetics with Spinel Structure Nanoparticles and Iron Oxide Nanoparticles, Biocompatible Aqueous Colloidal Systems Comprising Nanoparticles, Ferriliposomes, and Uses Thereof” (priority 2011, published 2014).

What was measured:
[1] = tested on: orthotopic allograft mouse breast cancer model; experiment: Doxorubicin treatment, orthotopic allograft mouse breast cancer model; type: in vivo; details: single dose 15 mg/kg, two weeks after administration
Experimental: Doxorubicin hydrochloride (Sigma) was dissolved in ferromagnetic iron oxide nanoparticles containing stabilizing buffer and then encapsulated into PEGylated liposomes. Three weeks after transplantations of primary cells (average tumour volume 75 mm^3) ferriliposomes loaded with doxorubicin were administered at a dose of 15 mg/kg (Dox+FLt, n=4). Magnets of 0.33 T (diameter 4.5 mm) were glued to the tumour by cyanoacrylate before injection and removed by acetone 24 hours after administration. Control group was treated with systemic administration of doxorubicin without any targeting (Dox, n=4). The horizontal and vertical tumour diameters were measured by digital calliper twice per week and volumes were calculated using the formula V=(a×b2)π/6 where a and b are the longer and shorter diameter of the tumour, respectively.

[2] = set-up: species or system rats; details: rat, in vivo, 500 mg/kg
Experimental: Female rats were treated with 500 mg/kg of iron oxide nanoparticles (n=16) and stabilizing buffer (n=8) as control. […] were sacrificed at day 7 and 12 after injection. Blood was collected and serum separation performed by centrifugation in Li-heparin 0.6 ml flasks (Fuji Photo Film Co., Ltd. Life Science Products Division). Biochemical parameters of creatinine, urea nitrogen, alanine transaminase, aspartate transaminase, creatine phosphokinase and total bilirubin in blood were analyzed by biochemical analyzer Fujifilm DRI CHEM 3500i (Fuji Photo Film Co., Ltd. Life Science Products Division). The kidneys, spleen, liver, heart and lung tissues were collected and fixed in 10% neutral formalin. Organs were dehydrated and maintained in paraffin blocks. 5 μm paraffin sections were stained by hematoxylin and eosin for histo-pathological analysis. iron oxide nanoparticles were detected in animal tissues by Prussian blue staining with carmine (Sigma).

Row | Compound | reduction of tumour volume [1] | histo-pathological analysis of lung, liver, kidney and spleen [2]
1 | COc1cccc2c1C(=O)c1c(O)c3c(c(O)c1C2=O)C[C@@](O)(C(=O)CO)C[C@@H]3O[C@H]1C[C@H](N)[C@H](O)[C@H](C)O1 [doxorubicin] | 60% | 
2 | Fe3O4 [iron oxide nanoparticles] |  | No morphological changes
